Format in all cases: in vivo
Assay [1] has as its system Matricaria inodora (MATIN). In words: Herbicidal pre-emergence action, section A (Table A6). As to conditions: application rate 1280 g/ha; visual grading after ca. 3 weeks vs untreated controls. An outline of the steps: (§1)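 Test plants, grown from seed sown in sandy loam with two species per pot, were treated pre-emergence by spraying the covering soil with WP or EC formulations at 600 l/ha water plus 0.5% additive. Visual grading of percent damage followed at ca. 3 weeks.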

The test system of assay [2] is Abutilon theophrasti (ABUTH). As to the kind of experiment: Herbicidal post-emergence action, section E (Table E1). The conditions noted are these: application rate 80 g/ha; assessed visually after ca. 3 weeks. An excerpt:
Seeds of mono- and dicotyledonous weed plants and crop plants were sown, in plastic or organic planting pots, in sandy loam, covered with soil and grown in a greenhouse under controlled growth conditions. 2 to 3 weeks after sowing, the test plants were sprayed in the single-leaf stage. The compounds according to the invention, formulated in form of wettable powders (WP) or as emulsifiable concentrates (EC), were sprayed onto the green plant parts as aqueous suspension or emulsion, with the addition of 0.5% of an additive, at an application rate of 600 l of water/ha (converted). The test plants were placed in the greenhouse for ca. 3 weeks under optimum growth conditions, and then the effect of the preparations was assessed visually in comparison with untreated controls (herbicidal effect in percent (%): 100% effect=plants have died off, 0% effect=as control plants).

Assay [3] concerns Amaranthus retroflexus (AMARE). In words: Herbicidal post-emergence action, section E (Table E3). The conditions noted are these: application rate 320 g/ha; assessed visually after ca. 3 weeks. In short, it runs like this: (§2)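 WP/EC sprayed on single-leaf plants (sandy loam, greenhouse, 2–3 wk post-sowing), 0.5% additive, 600 l/ha water; visual % damage vs untreated at ~3 wk.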
Assay [4] relates to Veronica persica (VERPE). As to the kind of experiment: Herbicidal post-emergence action, section E (Table E9). The conditions noted are these: application rate 80 g/ha, visual assessment ca. 3 weeks after spraying. An outline of the steps: as §2
The test system of assay [5] is Alopecurus myosuroides (ALOMY). As to the kind of experiment: Herbicidal post-emergence action, section E (Table E2). The conditions noted are these: application rate 320 g/ha; assessed visually after ca. 3 weeks. In short, it runs like this:
as §2

For assay [6], the system named is Abutilon theophrasti (ABUTH). As to the kind of experiment: Herbicidal post-emergence action, section B (Table B1). As to conditions: application rate 320 g/ha, rated visually after about 3 weeks. In short, it runs like this: (§3)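 Activity was scored visually as percent of untreated controls about 3 weeks after spraying, where 100% meant dead plants and 0% meant no difference. Plants were treated at the one-leaf stage with WP or EC formulations in water containing 0.5% additive, applied at 600 liters per hectare.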

For assay [7], the system named is Polygonum convolvulus (POLCO). In words: Herbicidal post-emergence action, section E (Table E7). As to conditions: application rate 320 g/ha, visual assessment ca. 3 weeks after spraying. In short, it runs like this:
as §2

Another assay has as its system Lolium rigidum (LOLRI). In words: Herbicidal post-emergence action, section B (Table B5). As to conditions: application rate 1280 g/ha; visual rating about 3 weeks after treatment vs untreated controls. In short, it runs like this: as §3
Assay [8] relates to Veronica persica (VERPE). As to the kind of experiment: Herbicidal post-emergence action, section B (Table B10). The conditions noted are these: application rate 320 g/ha; visual rating about 3 weeks after treatment vs untreated controls. An outline of the steps:
as §3

In the next assay the test system is Setaria viridis (SETVI). In words: Herbicidal pre-emergence action, section A (Table A8). The conditions noted are these: application rate 320 g/ha. In short, it runs like this: as §1
Assay [9] concerns Stellaria media (STEME). In words: Herbicidal post-emergence action, section B (Table B9). As to conditions: application rate 320 g/ha; visual rating about 3 weeks after treatment vs untreated controls. In short, it runs like this: as §3
The next assay relates to Zea mays (ZEAMX). As to the kind of experiment: Post-emergence effects on crop plants, section F (Table F1). As to conditions: crop plant damage, application rate 80 g/ha. An outline of the steps: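 Post-emergence greenhouse test: crops grown 2 to 3 weeks in sandy loam, sprayed at 320 g/ha or less in 600 l water/ha with 0.5% additive. Injury rated visually as percent relative to controls roughly three weeks later.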

The subject of assay [10] is Stellaria media (STEME). In words: Herbicidal pre-emergence action, section A (Table A9). The conditions noted are these: application rate 320 g/ha. In short, it runs like this:
as §1

Assay [11] deals with Digitaria sanguinalis (DIGSA). As to the kind of experiment: Herbicidal pre-emergence action, section A (Table A12). The conditions noted are these: application rate 320 g/ha. An outline of the steps: as §1

`Cc1cc2c(nc1-c1ccccc1F)N(C(=O)C1(C)CC(Cl)=NO1)CS2` (centres unmarked) [Example I-083]: the “pre-emergence activity against MATIN in %” value in [1] is listed as 90%. Moreover, the “post-emergence activity against ABUTH in %” value in assay [2] and in assay [6] was 90% in each case. Moreover, the “post-emergence activity against AMARE in %” value in assay [3] worked out at 80%. The “post-emergence activity against VERPE in %” value in the assay with Veronica persica (VERPE) [4] and in the assay with Veronica persica (VERPE) [8] was 90% throughout. Further, in assay [5], the “post-emergence activity against ALOMY in %” value worked out at 90%. Further, the “post-emergence activity against POLCO in %” value in [7] came out at 90%. Moreover, in the assay with Lolium rigidum (LOLRI), the “post-emergence activity against LOLRI in %” value was 90%. Further, the “pre-emergence activity against SETVI in %” value in the assay with Setaria viridis (SETVI) stood at 100%. In addition, the “post-emergence activity against STEME in %” value in the assay with Stellaria media (STEME) [9] is 90%. For the same molecule, the “post-emergence activity against ZEAMX in %” value with Zea mays (ZEAMX) was determined as 10%. Further, in the assay on Stellaria media (STEME) [10], the “pre-emergence activity against STEME in %” value was 90%. Also, the “pre-emergence activity against DIGSA in %” value in assay [11] is recorded as 100%.
